By IC50 is commonly meant the concentration that inhibits the measured activity by half.

The subject of assay [1] is 1:1 mixture of recombinant PKC-α and -β2 isozymes. The conditions noted are these: 1:1 mixture α and β, cited from earlier work; for Log(IC50/M): given as log of IC50 in M (negative).
Assay [2] concerns PKC-α. The conditions noted are these: cited from earlier work; for Log(IC50/M): given as log of IC50 in M (negative).
The subject of assay [3] is PKC-β. Particulars: cited from earlier work; for Log(IC50/M): given as log of IC50 in M (negative).
The subject of assay [4] is bovine aortic endothelial cells (BAECs). Nature of the assay: VEGF-induced tube formation assay. The assay is classed as cell-based. The conditions noted are these: for antiangiogenic activity in tube formation: pure compounds, maximum concentration 30 μM; for IC50: Bos taurus, BAEC. How it is done: The experiment was performed according to Arnaoutova and Kleinman ([Arnaoutova and Kleinman, 2010]). Briefly, BAECs (1.5 × 10^4 cells) were placed on a 96-well plate previously coated with Matrigel®. The plates were incubated for 18 h (37°C, 5% CO2) in the presence and absence of the tested extracts or the pure compounds, at a maximum concentration of 100 μg/ml and 30 μM, respectively, with the addition of VEGF (10 ng/ml) as angiogenic stimuli. […] Controls without or with ethanol (negative control) were simultaneously run. The final concentration of vehicle per well in this and all the experiments described herein was 1% v/v. […] The images were obtained with an inverted microscope and analyzed with the ImageJ software. The tubular structures were quantified. The percentages of inhibition (I%) were calculated as I% = [1−(total tube length treatment/total tube length control)] × 100. Each condition was assessed in triplicate. Each experiment was performed independently three times.

Assay [5] deals with BAEC cells. Nature of the assay: Matrigel (Boyden chamber) invasion assay, BAEC. The assay is classed as cell-based, bovine. Particulars: 24 h, VEGF 10 ng/ml chemoattractant, relative to control.
Assay [6] relates to MDA-MB-231 cells. Nature of the assay: Matrigel (Boyden chamber) invasion assay, MDA-MB-231. The assay is classed as cell-based, human. The conditions noted are these: 30 μM, 16 h, 10% FBS chemoattractant.

Molecules are shown by their SMILES. Like-named read-outs stand apart in the source and are kept apart here.

On to `O=Cc1ccc(-c2ccc(-c3ccc(C=O)s3)s2)s1` [DAT], for which, in assay [1] (ref Kim et al. (1998)), the half-maximal inhibitory concentration (IC50) is 0.3 µM and the “Log(IC50/M)” value was −6.5229.
Turning to `CC1CNCCN1S(=O)(=O)c1cccc2cnccc12` (stereo not drawn) [H7, 1-(5-Isoquinolinesulfonyl)-2-methylpiperazine], in assay [1] (ref Kinsella et al. (1992)), the IC50 is 40 µM and the “Log(IC50/M)” value is −4.3979.
`N=C(N)NCCNS(=O)(=O)c1cccc2cnccc12` [H4, N-(2-guanidinoethyl)isoquinoline-5-sulfonamide]: in assay [1] (ref Kinsella et al. (1992)), the half-maximal inhibitory concentration (IC50) was 10 µM and the “Log(IC50/M)” value is −5.0000.
As for `c1csc(-c2ccc(-c3cccs3)s2)c1` [TT, Terthiophene], in assay [1] (ref Kim et al. (1998)), the IC50 is 10 µM and the “Log(IC50/M)” value is given as −5.0000.
Turning to `CN(C)C[C@@H]1CCn2cc(c3ccccc32)C2=C(C(=O)NC2=O)c2cn(c3ccccc23)CCO1` [RUB, Ruboxistaurin], the IC50 in assay [2] (PKC α, ref Tang et al. (2008)) is […]; in assay [3] (PKC β, ref Tang et al. (2008)), […]. In addition, the “Log(IC50/M)” value in assay [2] (PKC α, ref Tang et al. (2008)) was […]; in assay [3] (PKC β, ref Tang et al. (2008)) it was […].
For `OCCC#Cc1ccc(-c2cccs2)s1` [Compound 2, 5-(4-hydroxybut-1-ynyl)-2,2′-bithiophene], the “antiangiogenic activity in tube formation” value in assay [4] is reported as “devoid of activity”.
Consider `CN1CCN(c2nc(C3=C(c4c[nH]c5ccccc45)C(=O)NC3=O)c3ccccc3n2)CC1` [NVP, 3-(1H-indol-3-yl)-4-[2-(4-methylpiperazin-1-yl)quinazolin-4-yl]-1H-pyrrole-2,5-dione], for which, in assay [2] (PKC α, ref Evenou et al. (2009)), the “Log(IC50/M)” value is reported as −9.0223.
For the compound `Cn1cc(C2=C(c3cn(C4CCN(Cc5ccccn5)CC4)c4ccccc34)C(=O)NC2=O)c2ccccc21` [ENZ, Enzastaurin], in assay [3] (PKC β, ref Graff et al. (2005)), the 50% inhibitory concentration (IC50) was […] and the “Log(IC50/M)” value is reported as […].
Take `OCc1ccc(-c2ccc(-c3cccs3)s2)s1` [Compound 3, 5-hydroxymethyl-2,2':5′,2″-terthiophene]: the 50% inhibitory concentration (IC50) in assay [4] (conversion of the μM value, read-out: IC50 tube formation expressed) is roughly 0.8 µg/mL; in assay [4] (pure compound, VEGF-induced, 18 h, read-out: IC50 tube formation) it was 2.7 ± 0.4 µM; in assay [3] (listed for PKC β, source assay used 1:1 mixture of PKC-α and -β2, ref Kim et al. (1998)) it was 4 µM; in assay [1] (ref Kim et al. (1998)), 4 µM. In addition, the “antiangiogenic effect compared with axitinib 10 μM” value in assay [4] (at 1.2 μM, p > 0.05) is “comparable to that of 10 μM of the potent angiogenesis inhibitor axitinib”. For the same compound, the invasive cells in assay [5] (10 μM) was 15.7 ± 2.5%; in assay [5] (30 μM), 1.6 ± 0.4%. Also, the “reduction of cell invasion” value in assay [6] is recorded as 32.7 ± 3.1%. The “Log(IC50/M)” value is −5.3979 in assay [2] (listed for PKC α, ref Kim et al. (1998)) and −5.3979 in assay [3] (listed for PKC β, ref Kim et al. (1998)).
On to `Cc1ccc(-c2ccc(C#CCCO)s2)s1` [Compound 1, 5′-methyl-[5-(4-hydroxy-1-butynyl)]-2,2′-bithiophene], for which, in assay [4], the “antiangiogenic activity in tube formation” value was “devoid of activity”.

These data come from article PMC9597362, “The thiophene α-terthienylmethanol isolated from Tagetes minuta inhibits angiogenesis by targeting protein kinase C isozymes α and β2” (Frontiers in Pharmacology, 2022).
